One test has as its target T1, EGFR (L858R T790M C797S) (Homo sapiens, UniProt P00533, C797S/L858R/T790M).
T1 construct: purchased SignalChem E10-122VG
Put plainly: Biochemical EGFR inhibition assay (Caliper mobility shift), EGFR LRTMCS. The method in brief:
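Caliper mobility shift read-out: product and substrate peptides separated by electrophoresis and quantified. Reactions at 25° C. taken to 10–20% peptide phosphorylation, quenched with 35 mM EDTA. Apparent IC50 from percent activity vs log [compound].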

In test [1] the target is T2, intracellular phosphorylation of EGFR in NCI-H1975 cell line that harbors the EGFR L858R T790M mutations (Homo sapiens, UniProt P00533, L858R/T790M).
T2 construct: NCI-H1975 cell line that harbors the EGFR L858R T790M mutations (ATCC, CRL-5908); host or cells: NCI-H1975
T2 sequence (P00533 25-1210 T790M/L858R): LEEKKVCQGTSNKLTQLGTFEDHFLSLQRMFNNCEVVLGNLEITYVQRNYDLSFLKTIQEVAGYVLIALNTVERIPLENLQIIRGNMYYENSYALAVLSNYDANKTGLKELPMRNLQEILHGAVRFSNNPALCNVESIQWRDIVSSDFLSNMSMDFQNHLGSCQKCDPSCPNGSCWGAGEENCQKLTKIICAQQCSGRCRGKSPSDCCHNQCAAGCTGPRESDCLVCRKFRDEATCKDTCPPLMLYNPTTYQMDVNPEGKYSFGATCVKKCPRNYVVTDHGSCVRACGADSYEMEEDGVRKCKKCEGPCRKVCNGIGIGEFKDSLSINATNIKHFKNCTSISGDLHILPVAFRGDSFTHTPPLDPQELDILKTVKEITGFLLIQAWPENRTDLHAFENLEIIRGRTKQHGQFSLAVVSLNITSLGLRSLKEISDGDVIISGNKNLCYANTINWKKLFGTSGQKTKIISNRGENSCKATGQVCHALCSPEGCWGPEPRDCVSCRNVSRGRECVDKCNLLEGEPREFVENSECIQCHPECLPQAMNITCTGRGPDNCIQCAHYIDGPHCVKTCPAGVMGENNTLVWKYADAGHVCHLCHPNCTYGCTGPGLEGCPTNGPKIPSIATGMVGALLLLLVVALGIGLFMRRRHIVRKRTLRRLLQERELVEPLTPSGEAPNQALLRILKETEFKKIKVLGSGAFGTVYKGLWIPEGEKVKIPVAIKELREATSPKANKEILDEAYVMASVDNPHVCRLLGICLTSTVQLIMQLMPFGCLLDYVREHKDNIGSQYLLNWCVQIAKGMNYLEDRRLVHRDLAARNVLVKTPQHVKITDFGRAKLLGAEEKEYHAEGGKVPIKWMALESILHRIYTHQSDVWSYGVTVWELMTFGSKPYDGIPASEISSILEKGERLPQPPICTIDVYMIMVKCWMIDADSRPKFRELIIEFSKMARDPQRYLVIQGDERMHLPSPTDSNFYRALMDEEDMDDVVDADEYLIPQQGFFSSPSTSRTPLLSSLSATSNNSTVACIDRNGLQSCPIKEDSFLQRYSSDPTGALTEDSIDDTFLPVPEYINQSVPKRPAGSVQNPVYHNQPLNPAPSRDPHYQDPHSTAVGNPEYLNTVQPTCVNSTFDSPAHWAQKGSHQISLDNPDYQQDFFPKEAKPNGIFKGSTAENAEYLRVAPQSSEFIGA
The test is described as follows: NCI-H1975 pEGFR AlphaLISA assay. Type of test: cell-based. Particulars: NCI-H1975 cells (EGFR L858R T790M), p-EGFR (Tyr1068), 4-5 hours incubation; read-out: Ext pEGFR H1975 GMean IC50 (nM) Protocol: @Pharmaron AlphaLISA (Num). The method, then: On the next day, the test compounds and DMSO control were added into H1975 cell plate followed by incubation at 37C/5% CO2 for 4-5 hours. […] Then 5 μL of a donor bead mix was added to each well followed by overnight incubation at room temperature in dark. On the next day, the plate was read at a compatible plate reader to obtain pEGFR signal. Percent of pEGFR inhibition was plotted against log concentration of compounds to generate IC50 values.
(In Alpha technology, singlet oxygen from a donor bead excites a nearby acceptor bead.)

Where [2] appears, read: LRTMCS (PH) IC50 (nM) @ 1 mM ATP (Num), EGFR LRTMCS mutant.

Structures are written as SMILES. Read-outs that look alike come from different tables or passages of the source.

T1 sequence (P00533 25-1210 T790M/C797S/L858R): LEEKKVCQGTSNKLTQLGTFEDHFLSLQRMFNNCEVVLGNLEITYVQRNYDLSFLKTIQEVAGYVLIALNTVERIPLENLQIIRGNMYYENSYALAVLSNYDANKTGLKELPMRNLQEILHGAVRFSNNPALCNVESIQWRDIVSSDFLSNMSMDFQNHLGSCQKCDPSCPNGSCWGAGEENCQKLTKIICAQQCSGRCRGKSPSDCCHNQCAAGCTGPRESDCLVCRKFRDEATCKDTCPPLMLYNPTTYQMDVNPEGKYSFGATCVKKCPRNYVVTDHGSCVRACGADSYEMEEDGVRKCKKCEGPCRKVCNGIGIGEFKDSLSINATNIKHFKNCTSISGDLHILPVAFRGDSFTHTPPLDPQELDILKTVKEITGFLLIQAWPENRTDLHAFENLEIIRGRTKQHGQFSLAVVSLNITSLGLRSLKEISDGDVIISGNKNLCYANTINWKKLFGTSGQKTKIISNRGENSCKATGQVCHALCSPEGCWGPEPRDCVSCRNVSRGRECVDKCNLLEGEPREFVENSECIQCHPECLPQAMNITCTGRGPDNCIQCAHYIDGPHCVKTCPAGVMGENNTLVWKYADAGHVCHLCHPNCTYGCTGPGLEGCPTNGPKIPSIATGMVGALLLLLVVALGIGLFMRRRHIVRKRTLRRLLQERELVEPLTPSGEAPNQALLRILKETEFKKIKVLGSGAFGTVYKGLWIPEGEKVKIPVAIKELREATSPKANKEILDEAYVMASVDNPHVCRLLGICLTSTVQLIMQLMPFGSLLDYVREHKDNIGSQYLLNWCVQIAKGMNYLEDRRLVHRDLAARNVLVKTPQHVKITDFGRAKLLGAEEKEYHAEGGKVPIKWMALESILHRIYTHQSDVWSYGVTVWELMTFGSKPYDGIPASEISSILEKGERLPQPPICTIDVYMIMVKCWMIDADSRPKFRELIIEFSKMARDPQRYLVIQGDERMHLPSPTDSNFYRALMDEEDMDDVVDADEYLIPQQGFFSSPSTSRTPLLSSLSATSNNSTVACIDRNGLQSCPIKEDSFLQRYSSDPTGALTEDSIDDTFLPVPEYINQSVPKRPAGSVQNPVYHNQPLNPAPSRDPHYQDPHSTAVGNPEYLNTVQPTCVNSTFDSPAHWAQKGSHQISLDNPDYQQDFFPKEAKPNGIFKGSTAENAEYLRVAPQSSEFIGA

For orientation: IC50 means the concentration needed to halve the response being measured. On to `C[C@@H]1CCN1c1ncc([C@@H](C)C(=O)N(C)C)c2cc(Nc3ccnc(N4CC[C@@H](O)[C@@](C)(F)C4)n3)ncc12` (single isomer, unassigned) [Example 185, (R)-2-(6-((2-((3S,4R)-3-fluoro-4-hydroxy-3-methylpiperidin-1-yl)pyrimidin-4-yl)amino)-1-((R)-2-methylazetidin-1-yl)-2,7-naphthyridin-4-yl)-N,N-dimethylpropanamide or (S)-2-(6-((2-((3S,4R)-3-fluoro-4-hydroxy-3-methylpiperidin-1-yl)pyrimidin-4-yl)amino)-1-((R)-2-methylazetidin-1-yl)-2,7-naphthyridin-4-yl)-N,N-dimethylpropanamide], for which the IC50 is 20 to 30 nM on EGFR (L858R T790M C797S) (setting [2]) and over 50 nM in test [1].

Regarding `C[C@@H]1CCN1c1ncc([C@@H](C)C(C)(C)O)c2cc(Nc3ccnc(N4CC[C@@H](O)[C@@](C)(F)C4)n3)ncc12` (single isomer, unassigned) [Example 186, (3S,4R)-3-fluoro-1-(4-((5-((R)-3-hydroxy-3-methylbutan-2-yl)-8-((R)-2-methylazetidin-1-yl)-2,7-naphthyridin-3-yl)amino)pyrimidin-2-yl)-3-methylpiperidin-4-ol or (3S,4R)-3-fluoro-1-(4-((5-((S)-3-hydroxy-3-methylbutan-2-yl)-8-((R)-2-methylazetidin-1-yl)-2,7-naphthyridin-3-yl)amino)pyrimidin-2-yl)-3-methylpiperidin-4-ol], the IC50 on EGFR (L858R T790M C797S) (setting [2]) was under 15 nM; in test [1] it was 10 to 20 nM.

Take `C[C@H](CO)c1cnc(N2CC[C@H]2C)c2cnc(Nc3ccnc(N4C[C@@H](F)[C@@H](O)C(C)(C)C4)n3)cc12` (single isomer, unassigned) [Example 187]: the results for the half-maximal inhibitory concentration (IC50) (at EGFR (L858R T790M C797S) (setting [2]); in test [1]) were 30 to 100 nM and over 50 nM, respectively.

In the case of `C[C@H](CO)c1cnc(N2CC[C@H]2C)c2cnc(Nc3ccnc(N4C[C@@H](F)[C@@H](O)C(C)(C)C4)n3)cc12` (single isomer, unassigned) [Example 188], the IC50 is under 15 nM on EGFR (L858R T790M C797S) (setting [2]) and 20 to 30 nM in test [1].

`C[C@@H](CO)c1cnc(N2CC[C@@H]2C)c2cnc(Nc3ccnc(N4CC[C@@H](O)[C@@](C)(F)C4)n3)cc12` (single isomer, unassigned) [Example 189]: the IC50 is under 15 nM at EGFR (L858R T790M C797S) (setting [2]) and 10 to 20 nM in test [1].

Regarding `CC(C)c1cnc(N2CCC23CNC3)c2cnc(Nc3ccnc(N4CC[C@@]5(CCO5)C(F)(F)C4)n3)cc12` (single isomer, unassigned) [Example 191, (R)—N-(2-(5,5-difluoro-1-oxa-7-azaspiro[3.5]nonan-7-yl)pyrimidin-4-yl)-5-isopropyl-8-(1,6-diazaspiro[3.3]heptan-1-yl)-2,7-naphthyridin-3-amine or (S)—N-(2-(5,5-difluoro-1-oxa-7-azaspiro[3.5]nonan-7-yl)pyrimidin-4-yl)-5-isopropyl-8-(1,6-diazaspiro[3.3]heptan-1-yl)-2,7-naphthyridin-3-amine], the results for the IC50 (on EGFR (L858R T790M C797S) (setting [2]); in test [1]) were under 15 nM and over 50 nM, respectively.

Take `CC(C)c1cnc(N2CCC23CN(C)C3)c2cnc(Nc3ccnc(N4CC[C@@]5(CCO5)C(F)(F)C4)n3)cc12` (single isomer, unassigned) [Example 194, (R)—N-(2-(5,5-difluoro-1-oxa-7-azaspiro[3.5]nonan-7-yl)pyrimidin-4-yl)-5-isopropyl-8-(6-methyl-1,6-diazaspiro[3.3]heptan-1-yl)-2,7-naphthyridin-3-amine or (S)—N-(2-(5,5-difluoro-1-oxa-7-azaspiro[3.5]nonan-7-yl)pyrimidin-4-yl)-5-isopropyl-8-(6-methyl-1,6-diazaspiro[3.3]heptan-1-yl)-2,7-naphthyridin-3-amine]: the figures for the half-maximal inhibitory concentration (IC50) (on EGFR (L858R T790M C797S) (setting [2]); in test [1]) were under 15 nM and over 50 nM, respectively.

`CC(C)c1cnc(N2CC[C@]23CCN(C)C3)c2cnc(Nc3ccnc(N4CC[C@@H](O)[C@@](C)(F)C4)n3)cc12` (single isomer, unassigned) [Example 198, (3S,4R)-3-fluoro-1-(4-((5-isopropyl-8-((S)-6-methyl-1,6-diazaspiro[3.4]octan-1-yl)-2,7-naphthyridin-3-yl)amino)pyrimidin-2-yl)-3-methylpiperidin-4-ol or (3S,4R)-3-fluoro-1-(4-((5-isopropyl-8-((R)-6-methyl-1,6-diazaspiro[3.4]octan-1-yl)-2,7-naphthyridin-3-yl)amino)pyrimidin-2-yl)-3-methylpiperidin-4-ol]: the results for the IC50 (on EGFR (L858R T790M C797S) (setting [2]); in test [1]) were 15 to 20 nM and 30 to 50 nM, respectively.

In the case of `CC(C)c1cnc(N2CC[C@@]23CCN(C)C3)c2cnc(Nc3ccnc(N4CC[C@@H](O)[C@@](C)(F)C4)n3)cc12` (single isomer, unassigned) [Example 199, (3S,4R)-3-fluoro-1-(4-((5-isopropyl-8-((R)-6-methyl-1,6-diazaspiro[3.4]octan-1-yl)-2,7-naphthyridin-3-yl)amino)pyrimidin-2-yl)-3-methylpiperidin-4-ol or (3S,4R)-3-fluoro-1-(4-((5-isopropyl-8-((S)-6-methyl-1,6-diazaspiro[3.4]octan-1-yl)-2,7-naphthyridin-3-yl)amino)pyrimidin-2-yl)-3-methylpiperidin-4-ol], the IC50 is under 15 nM at EGFR (L858R T790M C797S) (setting [2]) and 20 to 30 nM in test [1].

In the case of `CC(C)c1cnc(N2CC[C@H]2C(F)F)c2cnc(Nc3ccnc(N4CC[C@@H](O)[C@@](C)(F)C4)n3)cc12` (single isomer, unassigned) [Example 204, (3S,4R)-1-(4-((8-((S)-2-(difluoromethyl)azetidin-1-yl)-5-isopropyl-2,7-naphthyridin-3-yl)amino)pyrimidin-2-yl)-3-fluoro-3-methylpiperidin-4-ol or (3S,4R)-1-(4-((8-((R)-2-(difluoromethyl)azetidin-1-yl)-5-isopropyl-2,7-naphthyridin-3-yl)amino)pyrimidin-2-yl)-3-fluoro-3-methylpiperidin-4-ol], the results for the IC50 (at EGFR (L858R T790M C797S) (setting [2]); in test [1]) were under 15 nM and 10 to 20 nM, respectively.

As for `CC(C)c1nnc(N2CC[C@H]2C(F)F)c2cnc(Nc3ccnc(N4CC[C@@H](O)[C@@](C)(F)C4)n3)cc12` (single isomer, unassigned) [Example 205, (3S,4R)-1-(4-((4-((S)-2-(difluoromethyl)azetidin-1-yl)-1-isopropylpyrido[3,4-d]pyridazin-7-yl)amino)pyrimidin-2-yl)-3-fluoro-3-methylpiperidin-4-ol or (3S,4R)-1-(4-((4-((R)-2-(difluoromethyl)azetidin-1-yl)-1-isopropylpyrido[3,4-d]pyridazin-7-yl)amino)pyrimidin-2-yl)-3-fluoro-3-methylpiperidin-4-ol], the IC50 at EGFR (L858R T790M C797S) (setting [2]) is 30 to 100 nM; in test [1], over 50 nM.

Turning to `CC(C)c1nnc(N2CC[C@@H]2C)c2cnc(Nc3ccnc(N4CC[C@@H](O)[C@@](C)(F)C4)n3)cc12` (single isomer, unassigned) [Example 206, (3S,4R)-3-fluoro-1-(4-((1-isopropyl-4-((S)-2-methylazetidin-1-yl)pyrido[3,4-d]pyridazin-7-yl)amino)pyrimidin-2-yl)-3-methylpiperidin-4-ol or (3S,4R)-3-fluoro-1-(4-((1-isopropyl-4-((S)-2-methylazetidin-1-yl)pyrido[3,4-d]pyridazin-7-yl)amino)pyrimidin-2-yl)-3-methylpiperidin-4-ol], the IC50 on EGFR (L858R T790M C797S) (setting [2]) is under 15 nM; in test [1] it was 20 to 30 nM.

In the case of `CC(C)c1cnc(N2CC[C@@H](CS(C)(=O)=O)C2)c2cnc(Nc3ccnc(N4CC[C@@H](O)[C@@](C)(F)C4)n3)cc12` (single isomer, unassigned) [Example 207, (3S,4R)-3-fluoro-1-(4-((5-isopropyl-8-((R)-3-((methylsulfonyl)methyl)pyrrolidin-1-yl)-2,7-naphthyridin-3-yl)amino)pyrimidin-2-yl)-3-methylpiperidin-4-ol or (3S,4R)-3-fluoro-1-(4-((5-isopropyl-8-((S)-3-((methylsulfonyl)methyl)pyrrolidin-1-yl)-2,7-naphthyridin-3-yl)amino)pyrimidin-2-yl)-3-methylpiperidin-4-ol], the IC50 was under 15 nM on EGFR (L858R T790M C797S) (setting [2]) and 20 to 30 nM in test [1].

With `CC(C)c1cnc(N2CC[C@@H](CS(C)(=O)=O)C2)c2cnc(Nc3ccnc(N4CC[C@@H](O)[C@@](C)(F)C4)n3)cc12` (single isomer, unassigned) [Example 208, (3S,4R)-3-fluoro-1-(4-((5-isopropyl-8-((R)-3-((methylsulfonyl)methyl)pyrrolidin-1-yl)-2,7-naphthyridin-3-yl)amino)pyrimidin-2-yl)-3-methylpiperidin-4-ol or (3S,4R)-3-fluoro-1-(4-((5-isopropyl-8-((S)-3-((methylsulfonyl)methyl)pyrrolidin-1-yl)-2,7-naphthyridin-3-yl)amino)pyrimidin-2-yl)-3-methylpiperidin-4-ol], the IC50 at EGFR (L858R T790M C797S) (read-out: LRTMCS (PH) IC50 (nM) @ 1 mM ATP (Num), EGFR LRTMCS mutant) is under 15 nM; in test [1], 10 to 20 nM.

These data come from patent US20240382483A1, “HETEROCYCLIC EGFR INHIBITORS FOR USE IN THE TREATMENT OF CANCER” (Blueprint Medicines Corporation, priority 2021, published 2024).
